The values below come from patent US6506772B1, “Substituted [1,2,4]triazolo[1,5a]pyridine derivatives with activity as adenosine receptor ligands” (Hoffmann-La Roche Inc., priority 2000, dated 2003).

Each structure is given as a SMILES string.

The target in experiment [1] is T1, human adenosine A2A receptor (Homo sapiens, UniProt P29274).
T1 construct: expressed in transfected cells; host or cells: CHO cells, Semliki Forest virus expression system; membrane preparation
Briefly: Human adenosine A2A receptor [3H]-SCH-58261 binding assay. The settings on record: for Ki: affinity to human adenosine A2A receptor, read-out: Ki HA2A; for selectivity (A1/A2a): calculated ratio of the affinity to the HA1 receptor to the HA2a receptor.

For another experiment, the target named is T2, HA1 adenosine receptor (Homo sapiens, UniProt P30542).
T2 sequence (P30542 1-326): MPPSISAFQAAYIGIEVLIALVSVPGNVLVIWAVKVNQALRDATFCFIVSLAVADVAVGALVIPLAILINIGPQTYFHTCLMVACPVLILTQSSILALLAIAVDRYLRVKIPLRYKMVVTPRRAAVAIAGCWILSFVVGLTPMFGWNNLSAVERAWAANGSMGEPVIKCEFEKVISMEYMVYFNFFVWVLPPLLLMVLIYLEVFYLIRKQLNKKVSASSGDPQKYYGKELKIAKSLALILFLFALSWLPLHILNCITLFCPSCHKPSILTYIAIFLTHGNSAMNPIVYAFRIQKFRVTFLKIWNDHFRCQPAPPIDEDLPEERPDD
Briefly: Human adenosine A1 receptor affinity (Ki hA1). It is filed as binding. The settings on record: affinity to human adenosine A1 receptor.

T1 sequence (P29274 whole entry): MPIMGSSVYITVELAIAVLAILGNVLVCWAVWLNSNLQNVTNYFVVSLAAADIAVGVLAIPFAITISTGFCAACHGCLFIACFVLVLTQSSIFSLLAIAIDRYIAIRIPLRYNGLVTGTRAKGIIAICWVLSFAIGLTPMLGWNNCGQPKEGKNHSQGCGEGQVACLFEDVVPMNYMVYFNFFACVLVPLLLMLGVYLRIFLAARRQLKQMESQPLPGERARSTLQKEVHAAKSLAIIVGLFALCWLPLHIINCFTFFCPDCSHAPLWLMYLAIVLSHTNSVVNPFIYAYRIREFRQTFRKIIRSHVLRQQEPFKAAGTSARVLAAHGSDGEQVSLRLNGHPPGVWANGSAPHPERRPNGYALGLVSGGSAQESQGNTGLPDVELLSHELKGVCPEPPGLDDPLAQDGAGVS

Usually Ki stands for the equilibrium dissociation constant of an inhibitor or competing ligand from its target. For `Nc1cc(C(=O)NC2CCCCC2)cc2nc(-c3cccs3)nn12` [Example 162, 5-Amino-2-thiophen-2-yl-[1,2,4]triazolo[1,5-a]pyridine-7-carboxylic acid cyclohexylamide], the Ki amounted to 0.0614 µM in experiment [1] and 0.301 µM on HA1 adenosine receptor. In addition, the “selectivity (A1/A2a)” value in experiment [1] is given as 4.9.
On the same counts, the results for `Nc1cc(C(=O)NCc2ccccc2Cl)cc2nc(-c3cccs3)nn12` [Example 163, 5-Amino-2-thiophen-2-yl-[1,2,4]triazolo[1,5-a]pyridine-7-carboxylic acid 2-chloro-benzylamide] are 0.0311 µM, 0.125 µM and 4.0.
With `Nc1cc(C(=O)NCc2ccccc2Br)cc2nc(-c3cccs3)nn12` [Example 164, 5-Amino-2-thiophen-2-yl-[1,2,4]triazolo[1,5-a]pyridine-7-carboxylic acid 2-bromo-benzylamide], in experiment [1], the Ki stood at 0.0255 µM and the “selectivity (A1/A2a)” value is 4.4. For the same molecule, the Ki at HA1 adenosine receptor is 0.111 µM.
The matching figures for `Nc1cc(C(=O)NC2CCCCC2)cc2nc(-c3ccc(Br)o3)nn12` [Example 165, 5-Amino-2-(5-bromo-furan-2-yl)-[1,2,4]triazolo[1,5-a]pyridine-7-carboxylic acid cyclohexylamide]: 0.0888 µM, 8.7 and 0.77 µM.
The matching figures for `Nc1cc(C(=O)NCc2ccccc2)cc2nc(-c3ccc(Br)o3)nn12` [Example 166, 5-Amino-2-(5-bromo-furan-2-yl)-[1,2,4]triazolo[1,5-a]pyridine-7-carboxylic acid benzylamide]: 0.0397 µM, 5.1 and 0.201 µM.
Turning to `Nc1cc(C(=O)NCc2ccccc2Br)cc2nc(-c3ccc(Br)o3)nn12` [Example 167], the Ki in experiment [1] was 0.0427 µM; on HA1 adenosine receptor it was 0.196 µM. Besides, the “selectivity (A1/A2a)” value in experiment [1] is listed as 4.6.
Consider `CCCCNC(=O)c1cc(N)n2nc(-c3cc(Br)co3)nc2c1` [Example 168, 5-Amino-2-(4-bromo-furan-2-yl)-[1,2,4]triazolo[1,5-a]pyridine-7-carboxylic acid butylamide], for which the Ki was found to be 0.0184 µM in experiment [1] and 0.0472 µM at HA1 adenosine receptor. Moreover, the “selectivity (A1/A2a)” value in experiment [1] is on record as 2.6.
`CCN(CC)C(=O)c1cc(N)n2nc(-c3cc(Br)co3)nc2c1` [Example 169, 5-Amino-2-(4-bromo-furan-2-yl)-[1,2,4]triazolo[1,5-a]pyridine-7-carboxylic acid diethylamide]: in experiment [1], the Ki was found to be 0.119 µM and the “selectivity (A1/A2a)” value is 3.4. The same molecule displayed a Ki at HA1 adenosine receptor of 0.407 µM.
The matching figures for `Nc1cc(C(=O)N2CCCC2)cc2nc(-c3cc(Br)co3)nn12` [Example 170, [5-Amino-2-(4-bromo-furan-2-yl)-[1,2,4]triazolo[1,5-a]pyridin-7-yl]-pyrrolidin-1-yl-methanone]: 0.0338 µM, 4.5 and 0.152 µM.
On the same counts, the results for `Nc1cc(C(=O)N2CCCCC2)cc2nc(-c3cc(Br)co3)nn12` [Example 171, [5-Amino-2-(4-bromo-furan-2-yl)-[1,2,4]triazolo[1,5-a]pyridin-7-yl]-piperidin-1-yl-methanone] are 0.0649 µM, 4.3 and 0.276 µM.
On to `Nc1cc(C(=O)NCc2ccccc2)cc2nc(-c3cc(Br)co3)nn12` [Example 172, 5-Amino-2-(4-bromo-furan-2-yl)-[1,2,4]triazolo[1,5-a]pyridine-7-carboxylic acid benzylamide], for which, in experiment [1], the Ki worked out at 0.0297 µM and the “selectivity (A1/A2a)” value was 0.8. Also, the Ki on HA1 adenosine receptor came out at 0.0247 µM.
On the same counts, the results for `CC(C)N(Cc1ccccc1)C(=O)c1cc(N)n2nc(-c3cc(Br)co3)nc2c1` [Example 173, 5-Amino-2-(4-bromo-furan-2-yl)-[1,2,4]triazolo[1,5-a]pyridine-7-carboxylic acid benzyl-isopropyl-amide] are 0.0444 µM, 1.7 and 0.0736 µM.
